Results on 90 substances are retold here after patent publication US20220221458A1, “NOROVIRUS-BINDING PEPTIDE” (Kao Corporation, priority 2019, published 2022).

The subject of the test is norovirus VLPs (GII.4, GII.3, GII.17). The test can be described thus: In vitro selection by cDNA display against VLPs with appearance frequency analysis of sequences. Conditions: count among peptide aptamer sequences obtained after in vitro selection cycles (7 cycles GII.4, 5 cycles GII.3 and GII.17).

In the case of “258 (TNYLSF; Designed peptide) [compound 258]”, the “Appearance Frequency” value worked out at 6.

Turning to “138 (QLHRHK; Designed peptide) [compound 138]”, the “Appearance Frequency” value was 7.

Consider “171 (DWPYSR; Designed peptide) [compound 171]”, for which the “Appearance Frequency” value is reported as 6.

Turning to “253 (SSKSFA; Designed peptide) [compound 253]”, the “Appearance Frequency” value worked out at 6.

For the substance “178 (GAKELS; Designed peptide) [compound 178]”, the “Appearance Frequency” value was found to be 6.

As to “81 (HRSNGH; Designed peptide) [compound 81]”, the “Appearance Frequency” value is on record as 8.

For “84 (LASSGH; Designed peptide) [compound 84]”, the “Appearance Frequency” value is given as 8.

Turning to “164 (AKQRFT; Designed peptide) [compound 164]”, the “Appearance Frequency” value is 6.

As to “45 (RPFTML; Designed peptide) [compound 45]”, the “Appearance Frequency” value is listed as 10.

On to “242 (RTISGS; Designed peptide) [compound 242]”, for which the “Appearance Frequency” value is given as 6.

For “31 (HIPSRH; Designed peptide) [compound 31]”, the “Appearance Frequency” value was found to be 11.

Take “256 (STSVDW; Designed peptide) [compound 256]”: the “Appearance Frequency” value is 6.

In the case of “222 (NSIAHR; Designed peptide) [compound 222]”, the “Appearance Frequency” value worked out at 6.

As for “168 (DKVCKN; Designed peptide) [compound 168]”, the “Appearance Frequency” value is reported as 6.

For the substance “224 (PDRFCA; Designed peptide) [compound 224]”, the “Appearance Frequency” value worked out at 6.

Take “251 (SKYTAL; Designed peptide) [compound 251]”: the “Appearance Frequency” value is given as 6.

Take “201 (IKAHTR; Designed peptide) [compound 201]”: the “Appearance Frequency” value came to 6.

Turning to “35 (TKRQNL; Designed peptide) [compound 35]”, the “Appearance Frequency” value turned out to be 11.

Take “184 (GPCNSA; Designed peptide) [compound 184]”: the “Appearance Frequency” value amounted to 6.

Regarding “51 (VMCPNR; Designed peptide) [compound 51]”, the “Appearance Frequency” value amounted to 10.

Regarding “41 (GNIPGH; Designed peptide) [compound 41]”, the “Appearance Frequency” value is reported as 10.

As to “227 (QFSQLG; Designed peptide) [compound 227]”, the “Appearance Frequency” value stood at 6.

With “115 (GVNSGH; Designed peptide) [compound 115]”, the “Appearance Frequency” value was 7.

Consider “112 (GHFDAR; Designed peptide) [compound 112]”, for which the “Appearance Frequency” value was found to be 7.

Take “143 (RRCKLL; Designed peptide) [compound 143]”: the “Appearance Frequency” value was 7.

Consider “152 (SWPFCT; Designed peptide) [compound 152]”, for which the “Appearance Frequency” value is on record as 7.

As to “107 (FRECLY; Designed peptide) [compound 107]”, the “Appearance Frequency” value came out at 7.

Take “131 (NHCPSR; Designed peptide) [compound 131]”: the “Appearance Frequency” value came out at 7.

Turning to “93 (THACAH; Designed peptide) [compound 93]”, the “Appearance Frequency” value is given as 8.

Take “206 (KSMNNG; Designed peptide) [compound 206]”: the “Appearance Frequency” value is given as 6.

On to “190 (HKASHW; Designed peptide) [compound 190]”, for which the “Appearance Frequency” value amounted to 6.

Take “259 (VGMHHS; Designed peptide) [compound 259]”: the “Appearance Frequency” value amounted to 6.

On to “240 (RNHSRI; Designed peptide) [compound 240]”, for which the “Appearance Frequency” value is 6.

With “97 (VISLET; Designed peptide) [compound 97]”, the “Appearance Frequency” value was determined as 8.

In the case of “54 (FDHFYS; Designed peptide) [compound 54]”, the “Appearance Frequency” value is on record as 9.

On to “235 (RHTQTL; Designed peptide) [compound 235]”, for which the “Appearance Frequency” value came to 6.

As for “46 (RVSLYD; Designed peptide) [compound 46]”, the “Appearance Frequency” value was 10.

As for “186 (HDSRIR; Designed peptide) [compound 186]”, the “Appearance Frequency” value is given as 6.

Take “160 (WAGHRH; Designed peptide) [compound 160]”: the “Appearance Frequency” value stood at 7.

For “245 (RYMPVA; Designed peptide) [compound 245]”, the “Appearance Frequency” value was 6.

Take “16 (LSKHSR; Designed peptide) [compound 16]”: the “Appearance Frequency” value was 13.

“71 (CNLIAK; Designed peptide) [compound 71]”: the “Appearance Frequency” value stood at 8.

As to “95 (VGHVNW; Designed peptide) [compound 95]”, the “Appearance Frequency” value worked out at 8.

As to “161 (WVYARR; Designed peptide) [compound 161]”, the “Appearance Frequency” value stood at 7.

As for “268 (YRSNHG; Designed peptide) [compound 268]”, the “Appearance Frequency” value worked out at 6.

Regarding “141 (RHKVHH; Designed peptide) [compound 141]”, the “Appearance Frequency” value turned out to be 7.

As to “191 (HLAHKK; Designed peptide) [compound 191]”, the “Appearance Frequency” value turned out to be 6.

For the substance “236 (RIVLES; Designed peptide) [compound 236]”, the “Appearance Frequency” value turned out to be 6.

As for “53 (ACRSAF; Designed peptide) [compound 53]”, the “Appearance Frequency” value came out at 9.

Consider “232 (RGHPST; Designed peptide) [compound 232]”, for which the “Appearance Frequency” value is 6.

“74 (FPYARN; Designed peptide) [compound 74]”: the “Appearance Frequency” value is given as 8.

Consider “175 (FPFYHR; Designed peptide) [compound 175]”, for which the “Appearance Frequency” value worked out at 6.

Turning to “254 (STEFAR; Designed peptide) [compound 254]”, the “Appearance Frequency” value amounted to 6.

“200 (IHSPQK; Designed peptide) [compound 200]”: the “Appearance Frequency” value turned out to be 6.

For “63 (REESFS; Designed peptide) [compound 63]”, the “Appearance Frequency” value was found to be 9.

As for “92 (TGHIVW; Designed peptide) [compound 92]”, the “Appearance Frequency” value amounted to 8.

Turning to “132 (NHDVRF; Designed peptide) [compound 132]”, the “Appearance Frequency” value is given as 7.

On to “239 (RLRDPQ; Designed peptide) [compound 239]”, for which the “Appearance Frequency” value came to 6.

With “83 (KTRAIN; Designed peptide) [compound 83]”, the “Appearance Frequency” value is on record as 8.

As to “76 (GGSHST; Designed peptide) [compound 76]”, the “Appearance Frequency” value amounted to 8.

Regarding “134 (NPKAHL; Designed peptide) [compound 134]”, the “Appearance Frequency” value was 7.

Consider “34 (SVHTHR; Designed peptide) [compound 34]”, for which the “Appearance Frequency” value was 11.

Turning to “3 (GHRLHS; Designed peptide) [compound 3]”, the “Appearance Frequency” value came out at 21.

On to “32 (IMSSIG; Designed peptide) [compound 32]”, for which the “Appearance Frequency” value was found to be 11.

Consider “137 (QDRVTS; Designed peptide) [compound 137]”, for which the “Appearance Frequency” value was found to be 7.

With “50 (VIEMLD; Designed peptide) [compound 50]”, the “Appearance Frequency” value stood at 10.

Take “94 (TVASNN; Designed peptide) [compound 94]”: the “Appearance Frequency” value is reported as 8.

Take “140 (RFVKRR; Designed peptide) [compound 140]”: the “Appearance Frequency” value is given as 7.

Regarding “10 (GHHVSV; Designed peptide) [compound 10]”, the “Appearance Frequency” value was found to be 15.

Turning to “237 (RKCIDR; Designed peptide) [compound 237]”, the “Appearance Frequency” value is on record as 6.

Take “225 (PWTVPN; Designed peptide) [compound 225]”: the “Appearance Frequency” value is reported as 6.

As for “122 (ISRRGH; Designed peptide) [compound 122]”, the “Appearance Frequency” value is listed as 7.

Consider “188 (HFRRRV; Designed peptide) [compound 188]”, for which the “Appearance Frequency” value was found to be 6.

“247 (SEHNRY; Designed peptide) [compound 247]”: the “Appearance Frequency” value is on record as 6.

As for “119 (HYRSKS; Designed peptide) [compound 119]”, the “Appearance Frequency” value came to 7.

“20 (DYVFCG; Designed peptide) [compound 20]”: the “Appearance Frequency” value was 12.

As to “177 (FTQDAV; Designed peptide) [compound 177]”, the “Appearance Frequency” value is on record as 6.

“243 (RTLLVQ; Designed peptide) [compound 243]”: the “Appearance Frequency” value was 6.

Regarding “17 (RIGHMR; Designed peptide) [compound 17]”, the “Appearance Frequency” value was found to be 13.

Turning to “233 (RGTMWL; Designed peptide) [compound 233]”, the “Appearance Frequency” value is reported as 6.

In the case of “78 (GQRLTV; Designed peptide) [compound 78]”, the “Appearance Frequency” value is recorded as 8.

In the case of “19 (CTYVVE; Designed peptide) [compound 19]”, the “Appearance Frequency” value is reported as 12.

With “23 (LKASIR; Designed peptide) [compound 23]”, the “Appearance Frequency” value was 12.

Consider “36 (VNGVSH; Designed peptide) [compound 36]”, for which the “Appearance Frequency” value is recorded as 11.

Consider “169 (DRWGSK; Designed peptide) [compound 169]”, for which the “Appearance Frequency” value is 6.

Turning to “180 (GFGQWI; Designed peptide) [compound 180]”, the “Appearance Frequency” value came to 6.

Turning to “6 (FLDTLG; Designed peptide) [compound 6]”, the “Appearance Frequency” value was determined as 17.

For the substance “106 (FPTGTT; Designed peptide) [compound 106]”, the “Appearance Frequency” value is on record as 7.

As to “167 (CLHFAL; Designed peptide) [compound 167]”, the “Appearance Frequency” value stood at 6.

Regarding “49 (VETDGH; Designed peptide) [compound 49]”, the “Appearance Frequency” value was determined as 10.
